Results: patent US20080226565A1, “Anticariogenic Proteins & Peptides & Saccharides” (priority 2004, published 2008)

Assays:
[1] = Determination of the PF-value: Knoop micro hardness of tooth samples coated with product, then saliva and acetic acid (in-vitro); set-up: species or system human
Text: The capacity to protect teeth against caries can be measured with a technique well known in the art (U.S. Pat. No. 5,279,814). Demineralization with acid, decreases the hardness of the tooth surface. The hardness can be quantified indirectly by measuring the depth of penetration of a needle in the surface (measurement of micro hardness). With this procedure, so called “Knoop” method, the needle is penetrating the surface under the pressure of constant weight and leaves a mark on the surface that allows the calculation of the depth of penetration. The more the tooth is suffering from demineralization, the softer its surface will get and the larger the depth of penetration will be (Knoop F., Peters C. G., Emerson W. B., A Sensitive Pyramidal Diamond Tool for Identation Measurments, J. Res. Natn. Bur. Stand. 23, 39-61 (1939).
The procedure includes the determination of the hardness of a human tooth sample with the Knoop method. Subsequently, the tooth is treated with an experimental protecting product outside the oral cavity.
It is cleaned softly with a paper towel until the coating is invisible.
Subsequently the tooth sample is submerged in a batch of human saliva in order to simulate the conditions in the oral cavity. After removal from the saliva batch (after 30 min.) it is treated with acid over a constant time period of 30 min. at 37° C. The acid is washed away, the tooth is dried on air and the hardness is measured again. The change in hardness (delta P in μm) is obtained by comparing with the hardness of the tooth before treatment. This experiment is repeated on other tooth samples. The effect of acid on unprotected teeth is obtained by carrying out the same procedure but without the use of an experimental protecting product (delta Pa). The protecting capacity (“PF” protection factor) of an experimental protecting compound can be defined as: […]
The ability of a product to protect teeth (PF-value) is determined with the Knoop method. A tooth sample, size 3×3×3 mm is cut from a human tooth and embedded into polymerizing resin in such a way that the surface of the tooth sample appears on the surface of the (resin) cube after the resin has become solid. The surface of the tooth is mechanically polished with rotating silicon carbide abrasive paper (Struers P1200-P2400-P4000) and the micro hardness of the enamel is determined with a Knoop diamant needle (Leitz-Wetzlar;
microdurometer “Durimet”; weight 50 gr; penetration-time: 30 seconds (Collys et al., J. Dent. Res. 1990; 69: 458-462)).
The penetration leaves a mark on the tooth surface, which is related to the depth of penetration (μm) and which can be analyzed under the microscope. […] The determination of the depth of penetration is repeated six times on each of the tooth samples and the average value is calculated. In order to determine the effect of acid on the hardness of the surface, use is made of an acetic acid buffer from Merck (pH 5; 0.1N). One drop of acid is positioned on the enamel for a period of 30 minutes at 37° C. The sample is cleaned with demineralized water and dried. The hardness is measured again according to the method of Knoop. This procedure is repeated 4 times, which means that the sample has been subjected to acid for a total period of two hours.
A graph (Y: penetration depth μm; X: 5 treatment stages) can be made on the basis of 5 average values (each of them based on six measurement), one obtained before treatment with acid, and the other 4 obtained after each of the 4 treatment-stages with acid. A logaritmic regressionline is calculated.

Streptococcus spp. = assay: Susceptibility (MIC), agar dilution, Streptococcus spp.; type: cell-based; details: 6 from 9 Streptococcus strains
Procedure: (§1) The investigations included more than hundred strains isolated from the oral cavity: : anaerobes, microaerophilic bacteria, aerobes, Streptococcus spp. and yeast like fungi. The microorganisms were isolated from saliva, mucosal membrane, gingival pockets and caries decay. The susceptibility (MIC) of bacteria and yeastlike fungi were determined by means of plate dilution technique in agar.
(§2) The investigated samples were dissolved in sterile distilled water (immediately before the experiment) to obtain the following concentrations: 3.5, 1.7, 0.8, 0.4 and 0.2 mg/ml and were added into appropriate agar. The plates were inoculated using a Steers multipoint inoculator. Inoculum contained 10^6 CFU/spot. […]
(§3) Anaerobes. The susceptibility of bacteria was determined by means of the agar dilution methods with Brucella agar supplemented with 5% defibrinated sheep's blood, menadione and hemin. […] The susceptibility of bacteria was determined by means of the agar dilution methods with Brucella agar supplemented with 5% sheep's blood. […] The susceptibility of bacteria was determined by means of the agar dilution methods with Mueller-Hinton agar supplemented with 5% sheep's blood. […] The susceptibility to investigated samples was determined by means of the plate dilution technique in Mueller-Hinton agar. […]

[2] = In-vivo: residual protection, radiated samples after 5 days in oral cavity treated with acetic acid; set-up: species or system human
Text: N: number of tooth samples A: hardness(μm) after radiation and 5 days residence in the oral cavity B: hardness after radiation and 5 days in the oral cavity and treatment with acetic acid

[3] = system: microaerophilic bacteria isolated from the oral cavity; assay: Susceptibility (MIC), agar dilution, microaerophilic bacteria; type: cell-based
Procedure: as §1, §2, §3

casein phosphopeptide epsilon-polylysine copolymer [(CPP x elys)n]
PF factor ([1]; 7.8% product/water w/w): 94

bisphosphonylated epsilon-polylysine [bisphosphonylated e-polylysine]
concentration inhibiting growth (MIC) (Streptococcus spp.): 1.7 mg/mL | C: B−A (increase of depth of penetration by acid) ([2]; acetic acid 0.1N, 30 min, 37° C. after 5 days in oral cavity): 3.9 μm | B: hardness after radiation and 5 days in the oral cavity and treatment with acetic acid ([2]; acetic acid 0.1N, pH 5, 30 min, 37° C.): 44.5 μm | A: hardness after radiation and 5 days residence in the oral cavity ([2]; samples later treated with acid): 40.6 μm | mic value ([3]; 12 strains from 31 microaerophilic strains): 0.2 mg/mL | PF factor ([1]; 1.5% product/water w/w): 99

Epsilon-polylysine (elys; e-polylysine) [Product 6]
inhibitory concentration ([3]; 17 from 31 microaerophilic strains): 0.2 mg/mL | PF factor ([1]; 3.6% product/water w/w, with CaCl2.2H2O and KH2PO4): 70
